What was measured:
DJ-1 = experiment: MPTP mouse model of PD, Western blot of DJ-1 in the nigra; assay type: in vivo, mice; settings: oral GTB in MPTP-intoxicated mice, dose-dependent; FIG. 9A-B
Method: (§1) Six- to eight-week old C57BL/6 mice were purchased from Harlan (Indianapolis, Ind.). For acute MPTP intoxication, mice received four intraperitoneal (i.p.) injections of MPTP-HCl (18 mg/kg of free base; Sigma Chemical Co., St. Louis, Mo.) in saline at 2-h intervals. Control animals received only saline.
(§2) GTB was mixed in 0.5% methylcellulose (MC) and from 3 h after the last injection of MPTP, mice were gavaged 100 μL GTB-mixed MC once daily using gavage needle. Therefore, control MPTP mice received only MC as vehicle.
(§3) Immunoblot analysis for DJ-1 and TH was carried out. Briefly, cell homogenates were electrophoresed, proteins were transferred onto a nitrocellulose membrane, and bands were visualized with an Odyssey infrared scanner after immunolabeling with respective primary antibodies followed by infra-red fluorophore-tagged secondary antibody (Invitrogen).
Upregulation and/or maintenance of PD-related beneficial protein such as DJ-1 in the nigra during neurodegenerative insults may have therapeutic efficacy in PD.

spinal cord of EAE mice [1] = experiment: H&E histology, infiltration of inflammatory cells and cuffed vessels in spinal cord of EAE mice; assay type: in vivo; settings: GTB from 8 dpt, sacrificed 16 dpt
Source text: On 14 dpi (first chronic phase), five mice from each of the following groups (control, EAE, EAE+GTB, and EAE+vehicle) were anesthetized. After perfusion with phosphate buffered saline (PBS) (pH 7.4) and then with 4% (w/v) paraformaldehyde solution in PBS, cerebellum and whole spinal cord was dissected out from each mouse. The tissues were further fixed and then divided into halves: one-half was used for histological staining whereas the other half was used for myelin staining. For histological analysis, routine histology was performed to obtain perivascular cuffing and morphological details of CNS tissues of EAE mice. Paraformaldehyde-fixed tissues were embedded in paraffin, and serial sections (4 μm) were cut. Sections were stained with conventional H&E staining method. Digital images were collected under bright-field setting using an ×40 objective. Slides were assessed in a blinded fashion by three examiners for inflammation in different anatomical compartments (meninges and parenchyma). Inflammation was scored using the following scale as described: for meninges and parenchyma: 0, no infiltrating cells; 1, few infiltrating cells; 2, numerous infiltrating cells; and 3, widespread infiltration. For vessels: 0, no cuffed vessel; 1, one or two cuffed vessels per section; 2, three to five cuffed vessels per section and 3, more than five cuffed vessels per section. At least six serial sections of each spinal cord from each of five mice per group were scored and statistically analyzed by ANOVA.
Infiltration of autoreactive T cells and associated mononuclear cells is a hallmark of EAE as well as MS. The inventor examined whether GTB treatment attenuated infiltration and inflammation in adoptively-transferred EAE mice. Mice receiving GTB from 8 dpt (onset of the acute phase) were sacrificed on 16 dpt. […] In contrast, vehicle was unable to inhibit the infiltration of inflammatory cells (FIG. 4A).

[2] = system: blood-brain barrier and blood-spinal cord barrier; experiment: Integrity of BBB and BSB, infrared dye (Alexa-680) entry into CNS of EAE mice; assay type: in vivo
Source text: BBB and BSB are membranic structures that act primarily to protect the brain and the spinal cord, respectively from chemicals in the blood, while still allowing some essential molecules to enter. It is known that during active MS and EAE, BBB and BSB break down in a section of the brain and spinal cord, respectively due to widespread inflammation thereby allowing different blood molecules and toxins enter into the CNS. Therefore, the inventor investigated if GTB treatment modulated the integrity of BBB and BSB. The inventor injected an infrared dye (Alexa-680) via tail-vein and 2 h after the injection, live mice were scanned in an Odyssey infra-red scanner. As evidenced from FIG. 3A (first lane), infra-red signals were not visible on areas over the brain and the spinal cord in control HBSS-injected mice. […] In FIG. 3C, the top row relates to the frontal cortex, the middle row relates to the midbrain, and the last row relates to the cerebellum. In FIG. 3D, the first column relates to the control, the second column relates to EAE, the third column relates to EAE+GTB, the fourth column relates to EAE+Vehicle, and the y-axis is density of infrared signal.

spinal cord of EAE mice [3] = experiment: Luxol fast blue staining for myelin, spinal cord of EAE mice; assay type: in vivo; settings: FIG. 5A-B
Method: Sections were stained with Luxol fast blue for myelin as described earlier. Slides were assessed in a blinded fashion for demyelination by three examiners using the following scale: 0, normal white matter; 1, rare foci; 2, a few areas of demyelination; and 3, large areas of demyelination. At least six serial sections of each spinal cord from each of five mice per group were scored and statistically analyzed by ANOVA.
Demyelination is the most important pathological feature in MS, which is also modeled in EAE animals. Therefore, the inventor examined whether GTB protected EAE mice from demyelination. The inventor stained spinal cord sections by luxol fast blue (LFB) for myelin and observed widespread demyelination zones in the white matter (FIG. 5A-B). […] In contrast, vehicle was unable to restore myelin level in spinal cord of EAE mice (FIG. 5A-B). To confirm this finding, the inventor monitored the expression of […] myelin genes, myelin basic protein (MBP) and proteolipid protein (PLP), and observed a marked loss of mRNA expression of these genes in the spinal cord of untreated EAE mice compared to control mice (FIG. 5C-E).

female SJL/J mice = experiment: Adoptively-transferred RR-EAE, clinical symptoms; assay type: in vivo; settings: for clinical symptoms (mean clinical score): FIG. 1A
[4] = system: Tyrosine hydroxylase (TH); experiment: MPTP mouse model of PD, Western blot of nigral TH; assay type: in vivo, mice; settings: FIG. 9A-B
Method: as §1, §2, §3
Tyrosine hydroxylase (TH), the key enzyme responsible for the production of dopamine, is present in dopaminergic neurons. MPTP-intoxication led to approximately 60% loss of nigral TH (FIG. 9A-B) compared with saline-injected controls.

encephalitogenic T cells = experiment: Generation of encephalitogenic T cells in GTB-treated donor mice, adoptive transfer; assay type: in vivo; settings: donor mice treated with GTB 50 mg/kg body wt/d orally from day of MBP immunization; vs untreated or vehicle-treated donors; FIG. 2
[5] = system: female PLP-TCR transgenic (Tg) mice; experiment: Relapsing EAE in PLP-TCR transgenic mice, clinical symptoms; assay type: in vivo; settings: FIG. 1B

O=C(OCC(COC(=O)c1ccccc1)OC(=O)c1ccccc1)c1ccccc1 [GTB, glyceryl tribenzoate]
level of DJ-1 in the nigra (DJ-1): protected DJ-1 in the nigra
infiltration of inflammatory cells into the spinal cord (H&E) (spinal cord of EAE mice [1]; FIG. 4A): markedly inhibited the infiltration of inflammatory cells
quantitation of infiltration (spinal cord of EAE mice [1]; FIG. 4B): dramatically reduced infiltration
appearance of cuffed vessels (spinal cord of EAE mice [1]; FIG. 4C): dramatically reduced
entry of infra-red dye into the CNS, live mice ([2]; scan 2 h after tail-vein injection of Alexa-680, FIG. 3A): strongly inhibited the entry of infra-red dye into the CNS
entry of infra-red dye into spinal cord and parts of the brain, dissected tissue ([2]; spinal cord, frontal cortex, midbrain, cerebellum, FIG. 3B-D): markedly attenuated the entry of infra-red dye
myelin level in the spinal cord (LFB) (spinal cord of EAE mice [3]): remarkably restored myelin level
clinical symptoms (mean clinical score) (female SJL/J mice; GTB 25 mg/kg body wt/d by gavage once daily from 8 dpt): significantly inhibited clinical symptoms
clinical symptoms (mean clinical score) (female SJL/J mice; GTB 50 mg/kg body wt/d by gavage from 8 dpt, acute and chronic phases): dramatic inhibition of clinical symptoms
clinical symptoms (mean clinical score) (female SJL/J mice; GTB 100 mg/kg body wt/d by gavage from 8 dpt): less potent than either 50 mg/kg body wt/d
clinical symptoms of adoptively-transferred RR-EAE (female SJL/J mice; GTB treatment, TGF-β blocking experiment, FIG. 8): ameliorated clinical symptoms
dose that significantly suppressed clinical symptoms of EAE (female SJL/J mice; dose-dependent study, oral GTB): ≥ 25 mg/kg body wt/d
nigral TH ([4]; GTB 25 mg/kg body wt/d): protection was evident
nigral TH ([4]; oral GTB in MPTP-intoxicated mice): protected nigral TH in a dose-dependent manner
clinical symptoms and disease severity of recipient mice (encephalitogenic T cells): significantly reduced clinical symptoms and disease severity
dose of maximum inhibition of EAE ([5]; GTB from 8 dpi): 50 mg/kg body wt/d
clinical symptoms (mean clinical score) ([5]; different doses of GTB from 8 dpi, 10 μg/mouse PLP139-151): inhibitory effect of GTB on the clinical symptoms was clearly observed
